Measured values from paper PMC11580984 (bioRxiv, 2024).
Numbered stars: 1 amine (or outer) side, 2 acyl side, 3 side chain; on linkers, the order of the positions; unused ones are H or OH. Bridge positions count the residues as written; N and C are the ends. Square brackets hold non-standard residues; d marks the D form. Peptide text beside a SMILES is read from it. X1 = O=S(=O)(F)Oc1cc(C[*:1])cc(C[*:2])c1; Pra = C#CC[C@H](N)C(=O)O

molecular target: full-length spike Omicron BA2 variant (Severe acute respiratory syndrome coronavirus 2, UniProt P0DTC2, A27S/A892P/A899P/A942P/D405N/D614G/D796Y/DEL24-26/E484A/F817P/G142D/G339D/H655Y/K417N/K986P/N440K/N501Y/N679K/N764K/N969K/P681H/Q493R/Q498R/Q954H/R408S/R683A/R685A/S371F/S373P/S375F/S477N/T19I/T376A/T478K/V213G/V987P/Y505H); type: binding, SARS-CoV-2

Row | SMILES | spike labeling
1 | C#CC[C@H](NC(=O)[C@H](CCC(N)=O)NC(=O)[C@@H]1CSCc2cc(cc(OS(=O)(=O)F)c2)CSC[C@H](NC(=O)CN)C(=O)N[C@@H](CC(C)C)C(=O)N[C@@H](C(C)C)C(=O)N[C@@H](Cc2ccc(O)cc2)C(=O)N[C@@H](CC(C)C)C(=O)N[C@@H](CC(=O)O)C(=O)N[C@@H](CCC(N)=O)C(=O)N[C@@H](C(C)C)C(=O)N1)C(N)=O [CP_SW3A_S1] (H-GCLVYLDQVCQ[Pra]-NH2; linker 2-10 via X1) | dramatically reduced labeling
2 | C#CC[C@H](N)C(=O)N[C@@H](CCC(N)=O)C(=O)N[C@H]1CSCc2cc(cc(OS(=O)(=O)F)c2)CSC[C@@H](C(=O)NCC(N)=O)NC(=O)[C@H](CC(C)C)NC(=O)[C@H](C(C)C)NC(=O)[C@H](Cc2ccc(O)cc2)NC(=O)[C@H](CC(C)C)NC(=O)[C@H](CC(=O)O)NC(=O)[C@H](CCC(N)=O)NC(=O)[C@H](C(C)C)NC1=O [CP_SW3A] (H-[Pra]QCVQDLYVLCG-NH2; linker 3-11 via X1) | highest gel labeling intensity
3 | C#CC[C@H](N)C(=O)N[C@@H](CCC(N)=O)C(=O)N[C@H]1CSCc2cc(cc(OS(=O)(=O)F)c2)CSC[C@@H](C(=O)NCC(N)=O)NC(=O)[C@H](C(C)C)NC(=O)[C@H](CCC(N)=O)NC(=O)[C@H](CC(=O)O)NC(=O)[C@H](CC(C)C)NC(=O)[C@H](Cc2ccc(O)cc2)NC(=O)[C@H](C(C)C)NC(=O)[C@H](CC(C)C)NC1=O [CP_SW3A_S2] (H-[Pra]QCLVYLDQVCG-NH2; linker 3-11 via X1) | dramatically reduced labeling
